Laboratory results: ChEMBL document CHEMBL3991601, “The target landscape of clinical kinase drugs” (Science, 2017)
Active and inactive are the calls of the source.

How the values were obtained:
[1] = target: T1, Thyroid hormone receptor-associated protein 3 (Homo sapiens, UniProt Q9Y2W1)
T1 sequence (Q9Y2W1 whole entry): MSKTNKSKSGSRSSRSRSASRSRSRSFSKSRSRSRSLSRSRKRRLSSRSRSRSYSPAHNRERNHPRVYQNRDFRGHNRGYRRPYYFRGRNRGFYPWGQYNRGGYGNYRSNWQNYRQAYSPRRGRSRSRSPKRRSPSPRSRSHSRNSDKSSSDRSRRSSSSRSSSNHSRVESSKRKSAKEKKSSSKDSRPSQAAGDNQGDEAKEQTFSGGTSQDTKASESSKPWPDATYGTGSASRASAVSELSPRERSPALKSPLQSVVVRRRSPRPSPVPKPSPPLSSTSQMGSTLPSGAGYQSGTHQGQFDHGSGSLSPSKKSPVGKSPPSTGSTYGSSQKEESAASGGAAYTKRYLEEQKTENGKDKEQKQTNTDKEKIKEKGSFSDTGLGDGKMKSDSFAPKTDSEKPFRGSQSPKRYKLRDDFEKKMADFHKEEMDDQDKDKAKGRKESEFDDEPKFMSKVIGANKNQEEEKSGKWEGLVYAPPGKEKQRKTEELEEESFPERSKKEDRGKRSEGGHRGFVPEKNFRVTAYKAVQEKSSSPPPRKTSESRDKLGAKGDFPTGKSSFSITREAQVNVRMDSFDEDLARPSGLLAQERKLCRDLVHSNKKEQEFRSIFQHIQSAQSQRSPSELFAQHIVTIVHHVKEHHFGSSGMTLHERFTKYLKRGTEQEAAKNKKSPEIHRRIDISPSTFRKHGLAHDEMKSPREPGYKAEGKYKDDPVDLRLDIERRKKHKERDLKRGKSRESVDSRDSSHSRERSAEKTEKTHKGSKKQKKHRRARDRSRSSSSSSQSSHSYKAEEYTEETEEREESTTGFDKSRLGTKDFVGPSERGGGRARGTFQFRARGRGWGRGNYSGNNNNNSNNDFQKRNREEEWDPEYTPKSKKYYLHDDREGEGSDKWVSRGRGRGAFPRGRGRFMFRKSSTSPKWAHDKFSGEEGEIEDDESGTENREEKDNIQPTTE

[2] = target: Dual specificity testis-specific protein kinase 1 (Homo sapiens, UniProt Q15569)
[3] = target: Dual specificity protein kinase CLK4 (Homo sapiens, UniProt Q9HAZ1)
[4] = target: High affinity nerve growth factor receptor (Homo sapiens, UniProt P04629)
Ephrin type-A receptor 7 = Ephrin type-A receptor 7 (Homo sapiens, UniProt Q15375)
Ephrin type-A receptor 1 = target: T2, Ephrin type-A receptor 1 (Homo sapiens, UniProt P21709)
T2 sequence (P21709 whole entry): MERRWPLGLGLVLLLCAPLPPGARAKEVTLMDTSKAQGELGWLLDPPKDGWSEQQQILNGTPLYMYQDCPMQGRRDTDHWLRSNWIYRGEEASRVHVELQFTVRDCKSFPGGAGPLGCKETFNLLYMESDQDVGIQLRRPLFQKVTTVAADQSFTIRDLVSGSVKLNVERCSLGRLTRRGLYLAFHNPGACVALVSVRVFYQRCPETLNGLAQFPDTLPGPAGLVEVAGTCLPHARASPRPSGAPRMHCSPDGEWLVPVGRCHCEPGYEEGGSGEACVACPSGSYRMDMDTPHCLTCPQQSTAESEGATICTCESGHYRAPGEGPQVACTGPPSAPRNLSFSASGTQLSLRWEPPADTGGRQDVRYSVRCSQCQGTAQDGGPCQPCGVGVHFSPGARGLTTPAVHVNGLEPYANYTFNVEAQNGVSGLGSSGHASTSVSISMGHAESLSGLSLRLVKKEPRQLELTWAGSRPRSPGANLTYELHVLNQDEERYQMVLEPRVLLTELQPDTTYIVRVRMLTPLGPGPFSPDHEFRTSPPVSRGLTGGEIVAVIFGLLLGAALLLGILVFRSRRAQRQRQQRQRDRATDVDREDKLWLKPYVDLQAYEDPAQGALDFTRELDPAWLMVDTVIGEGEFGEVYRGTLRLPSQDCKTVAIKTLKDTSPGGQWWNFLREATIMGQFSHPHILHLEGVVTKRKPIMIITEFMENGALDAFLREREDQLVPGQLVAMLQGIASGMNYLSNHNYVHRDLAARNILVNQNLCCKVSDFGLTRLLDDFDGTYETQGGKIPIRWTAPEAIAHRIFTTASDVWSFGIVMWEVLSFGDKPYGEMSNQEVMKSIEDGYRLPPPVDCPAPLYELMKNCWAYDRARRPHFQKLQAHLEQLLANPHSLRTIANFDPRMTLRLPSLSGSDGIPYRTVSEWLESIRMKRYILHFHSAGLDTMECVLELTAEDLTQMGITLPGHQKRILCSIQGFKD

[5] = target: T3, Protein kinase C zeta type (Homo sapiens, UniProt Q05513)
T3 sequence (Q05513 whole entry): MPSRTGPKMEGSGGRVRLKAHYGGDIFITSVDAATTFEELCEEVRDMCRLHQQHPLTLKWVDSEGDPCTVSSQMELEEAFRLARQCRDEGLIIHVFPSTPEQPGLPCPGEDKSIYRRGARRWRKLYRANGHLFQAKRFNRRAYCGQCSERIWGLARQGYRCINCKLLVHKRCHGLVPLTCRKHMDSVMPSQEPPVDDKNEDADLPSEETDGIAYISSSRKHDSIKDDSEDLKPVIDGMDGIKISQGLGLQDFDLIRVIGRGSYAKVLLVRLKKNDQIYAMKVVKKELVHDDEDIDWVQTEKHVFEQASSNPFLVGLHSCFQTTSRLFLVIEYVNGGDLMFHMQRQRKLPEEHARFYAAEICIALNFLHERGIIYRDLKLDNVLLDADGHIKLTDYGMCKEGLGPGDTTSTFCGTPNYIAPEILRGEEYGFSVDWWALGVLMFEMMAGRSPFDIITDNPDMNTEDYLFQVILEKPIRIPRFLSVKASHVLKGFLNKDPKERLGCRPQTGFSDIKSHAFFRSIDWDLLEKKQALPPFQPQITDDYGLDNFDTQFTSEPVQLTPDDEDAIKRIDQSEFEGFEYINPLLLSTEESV

[6] = target: Membrane-associated progesterone receptor component 1 (Homo sapiens, UniProt O00264)
[7] = target: Serine/threonine-protein kinase Nek7 (Homo sapiens, UniProt Q8TDX7)
[8] = target: Uncharacterized aarF domain-containing protein kinase 5 (Homo sapiens, UniProt Q3MIX3)
[9] = target: Protein kinase C theta type (Homo sapiens, UniProt Q04759)
[10] = target: Serine/threonine-protein kinase PAK 6 (Homo sapiens, UniProt Q9NQU5)

Measured: Kd
Also: in the data inactive means no Kd found up to 30 µM.

Sequence of Serine/threonine-protein kinase Nek7 (Q8TDX7 whole entry, the tested form may be a part): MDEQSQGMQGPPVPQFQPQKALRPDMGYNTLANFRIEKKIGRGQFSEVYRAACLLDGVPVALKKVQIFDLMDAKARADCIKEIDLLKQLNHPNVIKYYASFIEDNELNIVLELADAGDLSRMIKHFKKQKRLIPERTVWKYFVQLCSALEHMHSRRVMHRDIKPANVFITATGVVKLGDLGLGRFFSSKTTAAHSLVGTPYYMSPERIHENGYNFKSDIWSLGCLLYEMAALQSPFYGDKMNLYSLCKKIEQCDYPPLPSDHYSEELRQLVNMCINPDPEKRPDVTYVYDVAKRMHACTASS
Sequence of Protein kinase C theta type (Q04759 whole entry): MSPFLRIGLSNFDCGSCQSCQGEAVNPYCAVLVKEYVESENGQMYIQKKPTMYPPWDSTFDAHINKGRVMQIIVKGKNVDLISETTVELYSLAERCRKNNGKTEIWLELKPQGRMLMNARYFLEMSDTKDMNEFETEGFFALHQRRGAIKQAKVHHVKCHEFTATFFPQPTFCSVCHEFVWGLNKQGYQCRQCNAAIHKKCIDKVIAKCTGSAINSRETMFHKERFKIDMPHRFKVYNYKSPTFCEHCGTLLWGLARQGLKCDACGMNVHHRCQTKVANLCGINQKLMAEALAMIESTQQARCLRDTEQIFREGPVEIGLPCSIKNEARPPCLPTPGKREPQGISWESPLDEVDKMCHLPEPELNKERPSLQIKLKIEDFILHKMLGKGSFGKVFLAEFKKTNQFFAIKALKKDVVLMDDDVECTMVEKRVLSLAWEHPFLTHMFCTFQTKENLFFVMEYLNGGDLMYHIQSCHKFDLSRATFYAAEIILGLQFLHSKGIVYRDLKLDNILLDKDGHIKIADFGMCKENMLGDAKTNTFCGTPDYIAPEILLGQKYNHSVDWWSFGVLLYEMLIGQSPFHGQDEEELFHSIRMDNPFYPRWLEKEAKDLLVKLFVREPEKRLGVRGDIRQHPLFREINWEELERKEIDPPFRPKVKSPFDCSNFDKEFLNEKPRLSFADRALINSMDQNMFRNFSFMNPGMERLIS
Sequence of Membrane-associated progesterone receptor component 1 (O00264 whole entry): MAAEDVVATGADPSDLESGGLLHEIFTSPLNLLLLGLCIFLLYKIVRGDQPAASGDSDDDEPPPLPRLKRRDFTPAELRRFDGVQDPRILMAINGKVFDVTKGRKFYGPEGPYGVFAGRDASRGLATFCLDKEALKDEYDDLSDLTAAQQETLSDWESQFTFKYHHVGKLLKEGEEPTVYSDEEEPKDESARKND
Sequence of High affinity nerve growth factor receptor (P04629 whole entry): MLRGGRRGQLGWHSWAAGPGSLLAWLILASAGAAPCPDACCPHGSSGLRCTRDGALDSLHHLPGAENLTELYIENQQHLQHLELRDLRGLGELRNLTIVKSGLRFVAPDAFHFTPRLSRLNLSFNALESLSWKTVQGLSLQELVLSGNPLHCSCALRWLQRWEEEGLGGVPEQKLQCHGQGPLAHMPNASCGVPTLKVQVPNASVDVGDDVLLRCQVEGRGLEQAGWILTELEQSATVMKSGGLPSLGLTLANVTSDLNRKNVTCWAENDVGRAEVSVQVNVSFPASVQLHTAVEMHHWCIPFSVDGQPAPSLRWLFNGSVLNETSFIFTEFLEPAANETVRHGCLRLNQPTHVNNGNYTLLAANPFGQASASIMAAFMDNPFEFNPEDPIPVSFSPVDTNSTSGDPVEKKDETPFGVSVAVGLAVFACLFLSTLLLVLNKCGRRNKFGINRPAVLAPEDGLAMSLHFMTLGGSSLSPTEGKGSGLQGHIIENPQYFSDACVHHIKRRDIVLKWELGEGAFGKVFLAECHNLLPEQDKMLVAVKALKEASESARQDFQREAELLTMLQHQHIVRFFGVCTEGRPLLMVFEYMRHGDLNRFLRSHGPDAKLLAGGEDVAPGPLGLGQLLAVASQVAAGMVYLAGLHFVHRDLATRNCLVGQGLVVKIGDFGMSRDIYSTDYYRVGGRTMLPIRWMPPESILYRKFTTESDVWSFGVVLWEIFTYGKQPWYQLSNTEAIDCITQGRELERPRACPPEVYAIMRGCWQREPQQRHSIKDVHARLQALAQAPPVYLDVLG
Sequence of Serine/threonine-protein kinase PAK 6 (Q9NQU5 whole entry): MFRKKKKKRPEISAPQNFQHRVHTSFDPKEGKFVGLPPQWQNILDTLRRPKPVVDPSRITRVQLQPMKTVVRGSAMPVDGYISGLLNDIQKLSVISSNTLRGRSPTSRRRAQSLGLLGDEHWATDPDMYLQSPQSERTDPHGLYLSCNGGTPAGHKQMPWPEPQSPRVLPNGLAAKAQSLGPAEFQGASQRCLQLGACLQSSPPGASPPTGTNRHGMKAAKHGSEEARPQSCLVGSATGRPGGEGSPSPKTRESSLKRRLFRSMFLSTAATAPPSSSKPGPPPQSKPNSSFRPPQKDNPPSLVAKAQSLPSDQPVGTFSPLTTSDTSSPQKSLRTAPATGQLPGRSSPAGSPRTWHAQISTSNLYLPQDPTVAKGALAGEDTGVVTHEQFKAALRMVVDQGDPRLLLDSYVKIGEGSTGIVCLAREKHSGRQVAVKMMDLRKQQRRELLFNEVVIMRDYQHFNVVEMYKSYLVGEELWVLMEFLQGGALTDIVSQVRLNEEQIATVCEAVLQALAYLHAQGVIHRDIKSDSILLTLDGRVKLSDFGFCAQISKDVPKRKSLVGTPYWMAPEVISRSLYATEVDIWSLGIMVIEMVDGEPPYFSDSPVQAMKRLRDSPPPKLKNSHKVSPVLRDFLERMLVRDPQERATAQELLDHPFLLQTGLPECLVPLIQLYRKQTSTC
Sequence of Dual specificity protein kinase CLK4 (Q9HAZ1 whole entry): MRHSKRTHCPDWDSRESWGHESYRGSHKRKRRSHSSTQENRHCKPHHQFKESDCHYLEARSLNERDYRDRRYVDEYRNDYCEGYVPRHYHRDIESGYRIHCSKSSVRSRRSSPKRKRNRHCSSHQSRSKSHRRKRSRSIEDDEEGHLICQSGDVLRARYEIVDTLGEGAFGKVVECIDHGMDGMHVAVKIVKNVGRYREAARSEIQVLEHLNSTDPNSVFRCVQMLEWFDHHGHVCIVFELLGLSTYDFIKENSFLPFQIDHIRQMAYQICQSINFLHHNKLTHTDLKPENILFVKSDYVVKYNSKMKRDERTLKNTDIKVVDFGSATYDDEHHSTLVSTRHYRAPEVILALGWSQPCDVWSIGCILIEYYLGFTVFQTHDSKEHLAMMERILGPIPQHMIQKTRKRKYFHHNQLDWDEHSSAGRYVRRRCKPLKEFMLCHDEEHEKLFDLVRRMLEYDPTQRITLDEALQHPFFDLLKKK
Sequence of Uncharacterized aarF domain-containing protein kinase 5 (Q3MIX3 whole entry, the tested form may be a part): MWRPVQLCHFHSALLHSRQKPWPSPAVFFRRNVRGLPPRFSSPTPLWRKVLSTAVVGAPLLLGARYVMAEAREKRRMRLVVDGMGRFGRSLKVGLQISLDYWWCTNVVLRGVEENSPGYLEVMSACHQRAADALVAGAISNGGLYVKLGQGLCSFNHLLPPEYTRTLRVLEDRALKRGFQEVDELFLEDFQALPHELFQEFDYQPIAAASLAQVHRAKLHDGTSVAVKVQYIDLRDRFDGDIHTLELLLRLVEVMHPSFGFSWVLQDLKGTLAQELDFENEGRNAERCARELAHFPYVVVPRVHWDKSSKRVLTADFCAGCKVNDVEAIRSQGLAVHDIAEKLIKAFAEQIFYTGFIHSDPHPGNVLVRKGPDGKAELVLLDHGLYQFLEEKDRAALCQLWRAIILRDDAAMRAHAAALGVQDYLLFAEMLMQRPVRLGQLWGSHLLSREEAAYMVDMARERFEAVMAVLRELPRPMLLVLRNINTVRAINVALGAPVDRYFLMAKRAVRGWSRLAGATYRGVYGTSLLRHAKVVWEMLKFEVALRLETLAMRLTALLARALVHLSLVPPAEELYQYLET
Sequence of Dual specificity testis-specific protein kinase 1 (Q15569 whole entry): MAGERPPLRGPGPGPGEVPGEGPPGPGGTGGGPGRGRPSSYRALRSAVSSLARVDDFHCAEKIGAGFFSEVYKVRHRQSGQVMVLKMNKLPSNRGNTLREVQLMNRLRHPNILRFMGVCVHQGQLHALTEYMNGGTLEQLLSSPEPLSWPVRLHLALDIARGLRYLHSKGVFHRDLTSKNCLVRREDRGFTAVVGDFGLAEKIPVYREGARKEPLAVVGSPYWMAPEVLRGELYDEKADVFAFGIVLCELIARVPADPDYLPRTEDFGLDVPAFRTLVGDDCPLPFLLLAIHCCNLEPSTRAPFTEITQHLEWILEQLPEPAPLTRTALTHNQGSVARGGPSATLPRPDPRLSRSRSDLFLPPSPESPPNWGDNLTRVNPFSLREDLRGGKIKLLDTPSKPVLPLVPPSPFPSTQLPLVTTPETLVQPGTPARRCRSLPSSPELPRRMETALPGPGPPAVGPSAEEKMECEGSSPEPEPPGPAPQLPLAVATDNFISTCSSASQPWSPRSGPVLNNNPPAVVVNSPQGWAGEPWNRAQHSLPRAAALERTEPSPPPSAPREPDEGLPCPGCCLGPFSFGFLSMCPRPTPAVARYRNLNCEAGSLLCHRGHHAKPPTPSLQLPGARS

Cc1ccc(NC(=O)c2ccc(CN3CC[C@H](N(C)C)C3)c(C(F)(F)F)c2)cc1Nc1nccc(-c2cncnc2)n1 [BAFETINIB]
inactive: [1] > 30 µM | [2] > 30 µM | [3] > 30 µM | [4] > 30 µM | Ephrin type-A receptor 7 > 30 µM | Ephrin type-A receptor 1 > 30 µM | [5] > 30 µM | [6] > 30 µM | [7] > 30 µM | [8] > 30 µM | [9] > 30 µM

COc1ccc(-c2ccc3c(N4CCOC[C@@H]4C)nc(N4CCOC[C@@H]4C)nc3n2)cc1CO [AZD-8055]
inactive: [1] > 30 µM | [2] > 30 µM | [3] > 30 µM | [4] > 30 µM | Ephrin type-A receptor 7 > 30 µM | [10] > 30 µM | Ephrin type-A receptor 1 > 30 µM | [5] > 30 µM | [6] > 30 µM | [7] > 30 µM | [9] > 30 µM

COc1cc2nccc(Oc3ccc(NC(=O)Nc4cc(C)on4)c(Cl)c3)c2cc1OC [TIVOZANIB]
inactive: [1] > 30 µM | [2] > 30 µM | [3] > 30 µM | [10] > 30 µM | Ephrin type-A receptor 1 > 30 µM | [5] > 30 µM | [6] > 30 µM | [7] > 30 µM | [8] > 30 µM | [9] > 30 µM

COc1cc(OC)c(/C=C/S(=O)(=O)Cc2ccc(OC)c(NCC(=O)O)c2)c(OC)c1 [RIGOSERTIB]
inactive: [1] > 30 µM | [2] > 30 µM | [3] > 30 µM | [4] > 30 µM | Ephrin type-A receptor 7 > 30 µM | [10] > 30 µM | Ephrin type-A receptor 1 > 30 µM | [5] > 30 µM | [7] > 30 µM | [8] > 30 µM | [9] > 30 µM

Cc1ccc(S(=O)(=O)Nc2nc3ccccc3nc2Nc2ccc3nsnc3c2)cc1
inactive: [1] > 30 µM | [2] > 30 µM | [3] > 30 µM | [4] > 30 µM | Ephrin type-A receptor 7 > 30 µM | Ephrin type-A receptor 1 > 30 µM | [5] > 30 µM | [7] > 30 µM | [9] > 30 µM

O=C(Nc1ccc(-c2ccnc(Nc3ccc(N4CCOCC4)cc3)n2)cc1)C1CCCN1 (stereo not given) [XL-019]
inactive: [1] > 30 µM | [2] > 30 µM | [3] > 30 µM | [4] > 30 µM | Ephrin type-A receptor 7 > 30 µM | [10] > 30 µM | Ephrin type-A receptor 1 > 30 µM | [5] > 30 µM | [7] > 30 µM | [9] > 30 µM

Cc1cc([C@@H](C)Nc2ccccc2C(=O)O)c2nc(N3CCOCC3)cc(=O)n2c1 [AZD-6482]
inactive: [1] > 30 µM | [2] > 30 µM | [3] > 30 µM | [4] > 30 µM | Ephrin type-A receptor 7 > 30 µM | [10] > 30 µM | Ephrin type-A receptor 1 > 30 µM | [5] > 30 µM | [6] > 30 µM | [8] > 30 µM | [9] > 30 µM

CC(=O)Nc1cccc(-n2c(=O)n(C3CC3)c(=O)c3c(Nc4ccc(I)cc4F)n(C)c(=O)c(C)c32)c1 [TRAMETINIB]
inactive: [1] > 30 µM | [2] > 30 µM | [3] > 30 µM | [4] > 30 µM | Ephrin type-A receptor 7 > 30 µM | [10] > 30 µM | Ephrin type-A receptor 1 > 30 µM | [5] > 30 µM | [6] > 30 µM | [8] > 30 µM | [9] > 30 µM

COCCNCc1ccc(-c2cc3nccc(Oc4ccc(NC(=S)NC(=O)Cc5ccc(F)cc5)cc4F)c3s2)nc1 [GLESATINIB]
inactive: [1] > 30 µM | [2] > 30 µM | [3] > 30 µM | [4] > 30 µM | [10] > 30 µM | Ephrin type-A receptor 1 > 30 µM | [5] > 30 µM | [6] > 30 µM | [7] > 30 µM | [8] > 30 µM | [9] > 30 µM
